# Measurements: patent US10407735B2, “Schlap-1 ncRNA and uses thereof” (THE REGENTS OF THE UNIVERSITY OF MICHIGAN, priority 2010, dated 2019)
# How the values were obtained:
# [1] = tested on: Du145 prostate cancer cells
# [2] = tested on: RWPE benign prostate cells
# [3] = tested on: PCAT-14 expression in VCaP and LNCaP cells; test: Androgen treatment (R1881), ncRNA expression by qPCR; type: cell-based, human; details: 5 nM R1881, androgen responsive VCaP and LNCaP cells
# Description: The benign immortalized prostate cell line RWPE as well as PC3, Du145, LNCaP, VCaP, 22Rv1, CWR22, C4-2B, NCI-660, MDA PCa 2b, WPMY-1, and LAPC-4 prostate cell lines were obtained from the American Type Culture Collection (Manassas, Va.). Benign non-immortalized prostate epithelial cells (PrEC) and prostate smooth muscle cells (PrSMC) were obtained from Lonza (Basel, Switzerland). Cell lines were maintained using standard media and conditions. For androgen treatment experiments, LNCaP and VCaP cells were grown in androgen depleted media lacking phenol red and supplemented with 10% charcoal-stripped serum and 1% penicillin-streptomycin. After 48 hours, cells were treated with 5 nM methyltrienolone (R1881, NEN Life Science Products) or an equivalent volume of ethanol. Cells were harvested for RNA at 6, 24, and 48 hours post-treatment. Prostate tissues were obtained from the radical prostatectomy series and Rapid Autopsy Program at the University of Michigan tissue core. These programs are part of the University of Michigan Prostate Cancer Specialized Program Of Research Excellence (S.P.O.R.E.). […]
# Quantitative Real-time PCR (qPCR) was performed using Power SYBR Green Mastermix (Applied Biosystems, Foster City, Calif.) on an Applied Biosystems 7900HT Real-Time PCR System. […] Fold changes were calculated relative to GAPDH and normalized to the median value of the benign samples.
Compound,sensitivity to PARP1 inhibitor (LNCAP prostate cells),sensitivity to PARP1 inhibitor (MCF7 breast cancer cells),sensitivity to PARP1 inhibitor [1],sensitivity to PARP1 inhibitor [2],PCAT-14 expression [3]
C[C@]1(c2nc3c(C(N)=O)cccc3[nH]2)CCCN1 [ABT-888],reduces sensitivity,does not recapitulate this effect,increases sensitivity,increases sensitivity,
"C[C@]1(O)CC[C@H]2[C@@H]3CCC4=CC(=O)CCC4=C3C=C[C@@]21C [R1881, methyltrienolone]",,,,,induced
